The test system of test [1] is A. xylosoxidans. In kind it is cell-based, Achromobacter xylosoxidans. Particulars: for MIC: A. xylosoxidans test organism of the sputum time-kill assay. The procedure:
MIC values were determined using a modification of the standard broth microdilution reference method defined by the Clinical and Laboratory Standards Institute (CLSI), CLSL. 2015. Methods for Dilution Antimicrobial Susceptibility Tests for Bacteria That Grow Aerobically; Approved Standard-10th Edition. Clinical and Laboratory Standards Institute, Wayne, PA. The modification was based on the replacement of Mueller Hinton Broth with either CAA media (with and without NaCl) or CAA supplemented with 2.5% human serum. MIC is the minimum concentration of peptide sufficient to suppress at least 80% of the bacterial growth compared to control.
The MICs for were determined as described below using the broth microdilution method for meropenem, GN370, AM1, AM2, and AM3. The results are shown below in Tables 8-12.
The activity of GN370 and AM1 was evaluated against various bacterial isolates, including mucoid and α-hemolytic isolates of P. aeruginosa, MDR isolates, and carbapenem-resistant isolates.

Test [2] relates to P. apista. The class given is cell-based, Pandoraea apista. The procedure:
The MBEC (after 2-hour treatments) was determined as described in Jones and Wozniak, PsI Produced by Mucoid Pseudomonas aeruginosa Contributes to the Establishment of Biofilms and Immune Evasion, Am. Soc. Microbiol. 2017, 8(3):e00864-17. Meropenem and tobramycin were included as controls and were both poorly active, with MBEC90 values of >256 μg/mL (data not shown).

Converted amounts (≈) assume the structure as drawn. Where two headings read alike, the source gives them in different places. Where a SMILES comes first, the peptide text is derived from it. Where no end group is shown, it is not given here. [ ]: non-standard residue; d: D form.

In test [1] (A. xylosoxidans isolates), “M[dR]L[dK]MA[dR][dR][dR]Y[dR]LP[dR][dR][dR]S[dR][dR]LFS[dR]TAL[dR]MHP[dR]N[dR]L[dR][dR]IM[dR]GGI[dR]F [AM2]” yielded an MIC50 of 2 µg/mL and an MIC90 of 64 µg/mL. Besides, the MIC result in test [1] is “AM2 (MIC = 1)”. In test [2], the MBEC50 came out at 8 µg/mL and the MBEC90 was found to be 16 µg/mL.
Take “MRLKMARRRYRLPRRRSRRLFSRTALRMHPRNRLRRIMRGGIRF [AM1]”: in test [1], the “AM1 MIC50” value came to 0.5 µg/mL, the “AM1 MIC90” value came to 1 µg/mL, the MIC50 was 1 µg/mL and the MIC90 turned out to be 4 µg/mL. In test [1], the MIC entry was “AM1 (MIC = 0.5)”. In test [1] (A. xylosoxidans isolates), the MIC50 is 0.5 µg/mL and the MIC90 came out at 2 µg/mL. In addition, in test [1] (A. xylosoxidans isolates, in µg/mL), the “MIC Range” value is recorded as 0.016-4. For the same compound, the “MIC Range” value in test [1] (MDR A. xylosoxidans isolates (n = 14), in µg/mL) was 0.5-4. Further, the “AM1 MIC Range” value in test [1] (carbapenem-resistant A. xylosoxidans isolates (n = 7), in µg/mL) was 0.06225-1. In test [2], the MBEC50 was determined as 8 µg/mL and the MBEC90 amounted to 16 µg/mL.
With `CC[C@H](C)[C@H](NC(=O)[C@@H](CCCNC(=N)N)NC(=O)[C@H](Cc1ccccc1)NC(=O)CNC(=O)CNC(=O)[C@@H](CCCNC(=N)N)NC(=O)[C@H](CCSC)NC(=O)[C@@H]1CCCN1C(=O)[C@@H](CCCNC(=N)N)NC(=O)[C@H](C)NC(=O)[C@@H](CCCNC(=N)N)NC(=O)[C@H](CC(C)C)NC(=O)[C@H](CC(N)=O)NC(=O)[C@@H](CCCNC(=N)N)NC(=O)[C@@H](CCCCN)NC(=O)[C@@H](CCCCN)NC(=O)[C@@H](NC(=O)[C@H](CC(N)=O)NC(=O)[C@@H](NC(=O)[C@H](C)NC(=O)CNC(=O)[C@@H](CCCNC(=N)N)NC(=O)[C@@H](NC(=O)[C@H](Cc1ccccc1)NC(=O)[C@@H](NC(=O)[C@@H](CCCCN)NC(=O)[C@@H](CCCNC(=N)N)NC(=O)[C@H](CO)NC(=O)[C@@H](CCCCN)NC(=O)[C@@H](CCCCN)NC(=O)[C@@H](CCCCN)NC(=O)[C@H](CO)NC(=O)[C@H](CC(C)C)NC(=O)[C@@H](CCCCN)NC(=O)[C@@H](CCCNC(=N)N)NC(=O)[C@@H](CCCNC(=N)N)NC(=O)[C@@H](CCCCN)NC(=O)[C@@H](N)CCSC)[C@@H](C)CC)[C@@H](C)O)C(C)C)C(C)C)C(=O)O` [AM3] (H-M[dK][dR][dR][dK]LS[dK][dK][dK]S[dR][dK]IFT[dR]GAVNV[dK][dK][dR]NL[dR]A[dR]PM[dR]GGF[dR]I-OH; N-terminus and C-terminus assumed), in test [1] (A. xylosoxidans isolates), the MIC50 came out at 2 µg/mL (≈ 0.438 µM) and the MIC90 was 16 µg/mL (≈ 3.5 µM). Moreover, the MIC entry in test [1] is listed as “AM3 (MIC = 0.5)”. In addition, in test [2], the MBEC50 was determined as 8 µg/mL, the MBEC90 is 8 µg/mL and the “MBEC Range” value lay within 4 to 16 µg/mL.

Values taken from patent US20240181022A1, “AMURINS LYSINS, AND LYSIN-ANTIMICROBIAL PEPTIDE (AMP) CONSTRUCTS ACTIVE AGAINST GRAM-NEGATIVE BACTERIA” (priority 2021, published 2024).
